Experimental data from patent publication US10231980B2, “Cortexolone 17alpha-benzoate for use in the treatment of tumours” (COSMO TECHNOLOGIES LTD., priority 2014, dated 2019).
pIC50: −log10 of the molar value. Where two headings read alike, the source gives them in different places. Blank lines part the entries; values can stand above or below the compound they belong to.

Experiments:
[1] = tested on: stimulated PBMC; assay: IC50 on stimulated (actively dividing) PBMC; type: cell-based, human; conditions: PBMC Stim; Table IV
[2] = tested on: MCF7; assay: In vitro proliferation / cytotoxic assay on breast cancer cells (Examples 14, 25)
Protocol: (§1) Data shown in Table I were fitted through sigmoidal dose response curves and analyzed using Prizm statistical.
For the cytotoxic assay, cells were seeded in 96-well flat bottom culture plates in media containing charcoal stripped serum. After 24 hours, test compounds were added to the cells. DMSO was used as the vehicle negative control and RU486 as the positive control. After 72 hour incubation, cells were harvested and lysed to determine cell viability using the Cell Titer Glow assay.

[3] = tested on: MiaPaca2; assay: ATP-dependent cell viability assay (Cell Titer Glo), Example 12; conditions: for pIC50: Homo sapiens
Description: as §1

[4] = tested on: LNCaP; assay: as above; conditions: for pIC50: Homo sapiens
Description: as §1

[5] = tested on: Panc1; assay: as above; conditions: for pIC50: Homo sapiens
Description: as §1

[6] = tested on: PC3; assay: as above; conditions: for pIC50: Homo sapiens
Description: as §1

[7] = tested on: 7 cancer cell lines; assay: Therapeutic index over a panel of cancer cell lines; type: cell-based; conditions: average over the cancer cell lines of Table VII
Protocol: (§2) The compound toxicity was determined as follow:
(§3) Therapeutic Index=Safety/Potency=IC50 stimulated PBMC/IC50 cancer cell

[8] = tested on: HT29; assay: MTT colorimetric assay on epithelial intestinal cancer cells; type: cell-based; conditions: human, 72 h
Protocol: The experiment was performed to test and define anticancer activity in vitro of Cortexolone 17α-benzoate and cortexolone 17α-valerate, 21-propionate on cell lines representatives of epithelial intestinal tumours, namely HT29. The experiment method consisted in: • 1. Monolayer HT-29 cells were plated in: 96-wells plates at the density of 2×10^4 cells/mL. The cells plated were kept at 37° C. in 5% CO2 and left to attach for 24 h. • 2. […] After 72 h of treatment, the MTT colorimetric assay was performed.

[9] = tested on: stimulated PBMC; assay: IC50 on stimulated (actively dividing) PBMC; type: cell-based, human; conditions: Homo sapiens, PBMC, PBMC STIMULATED; Table IV; read-out: In vitro proliferation IC50
Protocol: as §2, §3

[10] = tested on: MiaPaca-2 pancreatic tumor xenograft; assay: Human pancreatic tumor xenograft in nude mice; type: in vivo
Protocol: Cortexolone 17α-benzoate and Cyproterone Acetate were separately diluted in DMSO/2-hydroxypropyl β-cyclodextrin (vehicle).
The test was carried out comparing the anti-tumor activity of cortexolone 17α-benzoate at two different dosages (8.0 mg/kg, corresponding approximately at 230 μM, and 40 mg/kg, corresponding approximately at 1150 μM), versus the vehicle (i.e. 0.4% (v/v) tween 80 and 0.5% (w/v) carboxymethylcellulose in normal saline) and versus the comparator Cyproterone Acetate at two different dosages (7.4 mg/kg and 37 mg/kg).
1×10^6 MiaPaca-2 cells suspended in matrigel were sub-cutaneously injected into 6 week old athymic nude mice.
The treatment with the tested compounds, with the vehicle and with the comparative compound, was initiated after the tumor volume has reached 50 mm^3 after transplantation. All compounds were injected 100 μL/mouse of low dose solution (approximately 230 μM) or 100 μL/mouse of high dose solution (approximately 1150 μM) of cortexolone 17α-benzoate, vehicle and Cyproterone Acetate, respectively. Compounds and controls were administered subcutaneously daily for 28 days.
Tumors were measured every 4 days with a digital caliper.
The results are plotted in FIG. 1 as average change in tumor volume relative to the start of treatment. Tumor volume was calculated according to the formula 0.5236(r1)^2(r2) where r1<r2.
Error bars are the SEM for 7 to 10 mice per treatment group. P values were calculated according to the Student's t test.
Cortexolone 17α-valerate-21-propionate and Cyproterone Acetate were separately diluted in DMSO/2-hydroxypropyl β-cyclodextrin (vehicle).
The test was carried out comparing the anti-tumor activity of cortexolone 17α-valerate-21-propionate at two different dosages (approximately 8.6 mg/kg and 43 mg/kg) versus the vehicle (i.e. 0.4% (v/v) tween 80 and 0.5% (w/v) carboxymethylcellulose in normal saline) and versus the comparator Cyproterone Acetate at two different dosages (7.4 mg/kg and 37 mg/kg).
1×10^6 MiaPaca-2 cells suspended in matrigel were subcutaneously injected into 6 week old athymic nude mice.
The treatment with the tested compound, with the vehicle and with the comparative compound was initiated after the tumor has reached a volume of 50 mm^3 after implantation, injecting subcutaneously 100 μL/mouse of low dose solution (approximately 230 μM) or 100 μL/mouse of high dose solution (approximately 1150 μM) of cortexolone 17α-valerate-21-propionate, vehicle and Cyproterone Acetate, respectively. Compounds and controls were administered subcutaneously daily for 28 days. Tumors were measured every 4 days with a digital caliper.
The results are plotted in FIG. 2 as average change in tumor volume relative to the start of treatment. Tumor volume was calculated according to the formula 0.5236(r1)^2(r2) where r1<r2.
Cyproterone acetate (CPA), a well-known anti-androgen, was used as control. Briefly 1×10^6 MiaPaca2 cells suspended in matrigel were subcutaneously (sc) injected into 6 week old male athymic nude mice. Tumors were measured every 4 days with a digital caliper. Tumor volume was calculated according to the formula: 0.5236(r1)2(r2) where r1<r2. Treatment with CB-03-06 and control compounds were initiated after the tumor had reached 50 mm^3. Compounds diluted in DMSO/2-hydroxypropyl b-cyclodextrin (vehicle) were subcutaneously injected daily (100 microL/mouse) at the concentration of 40 mg/Kg daily for 28 consecutive days.

[11] = tested on: Panc1 (AR+); assay: ATP-dependent proliferation assay with 10 nM DHT, pancreatic cancer cells (Examples 3, 4, 7); conditions: for TI on Resting PBMC: IC50 resting PBMC / IC50 Panc1; for TI on Stimulated PBMC: IC50 stimulated PBMC / IC50 Panc1
Protocol: (§4) The experimental method consisted of: • 1. […] After 24 hrs, 10 nM DHT (dihydrotestosterone) with or without anti-androgen compounds, or DMSO vehicle (negative control) was added to the cultures. • 3.
(§5) Data from Experiment 1 were fitted through sigmoidal dose response curves and analyzed using Prizm statistical analysis software. […] The results from 2 sets of experiments follow.
(§6) Data from Experiment 1 was fitted through sigmoidal dose response curves and analyzed using Prizm statistical analysis software.

[12] = tested on: MiaPaca2 (AR low); assay: as above; conditions: for TI on Resting PBMC: IC50 resting PBMC / IC50 MiaPaca2; for TI on Stimulated PBMC: IC50 stimulated PBMC / IC50 MiaPaca2
Protocol: as §4, §5, §6

[13] = LNCaP, read-out: In vitro proliferation IC50
[14] = PC-3, 72 h, PC3, Tables I and II, titrated 3 uM to 200 uM, 3 days
[15] = PC-3, read-out: In vitro proliferation IC50, PC3, Table IV
[16] = Experiment 1, 0 = higher toxicity in PBMC

- pIC50 ([4]; LNCaP, 72 h): 4.48
- pIC50 [4, 13]: 4.48
- pIC50 [6, 14]: 3.72
- pIC50 [6, 15]: 3.72
SMILES: CCC(=O)O[C@]1(C(=O)CO)CC[C@H]2[C@@H]3CCC4=CC(=O)CC[C@]4(C)[C@H]3CC[C@@]21C [CB-03-01, cortexolone 17α-propionate]
- Therapeutic Index = IC50 resting PBMC/IC50 cancer cell [1]: 1
- Therapeutic Index = IC50 resting PBMC/IC50 cancer cell ([2]; human, 3 days): 0
- Therapeutic Index = IC50 stimulated PBMC/IC50 cancer cell ([2]; human, 3 days): 0
- Therapeutic Index = IC50 resting PBMC/IC50 cancer cell ([3]; human, 3 days): 0
- Therapeutic Index = IC50 stimulated PBMC/IC50 cancer cell ([3]; human, 3 days): 0
- Therapeutic Index = IC50 resting PBMC/IC50 cancer cell ([4]; human, 3 days): 0
- Therapeutic Index = IC50 stimulated PBMC/IC50 cancer cell ([4]; human, 3 days): 0
- Therapeutic Index = IC50 resting PBMC/IC50 cancer cell ([5]; human, 3 days): 0
- Therapeutic Index = IC50 stimulated PBMC/IC50 cancer cell ([5]; human, 3 days): 0
- Therapeutic Index = IC50 resting PBMC/IC50 cancer cell ([6]; human, 3 days): 0
- Therapeutic Index = IC50 stimulated PBMC/IC50 cancer cell ([6]; human, 3 days): 0
- Therapeutic Index = IC50 stimulated PBMC/IC50 cancer cell, AVERAGE [7]: 0

SMILES: CCCC(=O)OC1(C(=O)CO)CCC2C3CCC4=CC(=O)CC[C@]4(C)C3=CC[C@@]21C (single isomer, unassigned) [CB-03-04]
- Therapeutic Index = IC50 resting PBMC/IC50 cancer cell [1]: 1
- Therapeutic Index = IC50 resting PBMC/IC50 cancer cell [8]: 7
- Therapeutic Index = IC50 stimulated PBMC/IC50 cancer cell [8]: 7
- Therapeutic Index = IC50 resting PBMC/IC50 cancer cell ([2]; human, 3 days): 4
- Therapeutic Index = IC50 stimulated PBMC/IC50 cancer cell ([2]; human, 3 days): 4
- Therapeutic Index = IC50 resting PBMC/IC50 cancer cell ([3]; human, 3 days): 2
- Therapeutic Index = IC50 stimulated PBMC/IC50 cancer cell ([3]; human, 3 days): 2
- pIC50 ([4]; LNCaP, 72 h): 4.34
- pIC50 [4, 13]: 4.34
- Therapeutic Index = IC50 resting PBMC/IC50 cancer cell ([4]; human, 3 days): 8
- Therapeutic Index = IC50 stimulated PBMC/IC50 cancer cell ([4]; human, 3 days): 8
- Therapeutic Index = IC50 resting PBMC/IC50 cancer cell ([5]; human, 3 days): 1
- Therapeutic Index = IC50 stimulated PBMC/IC50 cancer cell ([5]; human, 3 days): 1
- pIC50 [6, 14]: 3.87
- pIC50 [6, 15]: 3.85
- Therapeutic Index = IC50 resting PBMC/IC50 cancer cell ([6]; human, 3 days): 3
- Therapeutic Index = IC50 stimulated PBMC/IC50 cancer cell ([6]; human, 3 days): 3
- Therapeutic Index = IC50 stimulated PBMC/IC50 cancer cell, AVERAGE [7]: 4

SMILES: CCCC(=O)OCC(=O)[C@@]1(OC(=O)CCC)CCC2C3CCC4=CC(=O)CC[C@]4(C)C3CC[C@@]21C (stereo partly drawn) [CB-03-03]
- Therapeutic Index = IC50 resting PBMC/IC50 cancer cell [1]: 1
- pIC50 ([2]; Homo sapiens, MCF7, read-out: In vitro proliferation IC50): 4.49
- Therapeutic Index = IC50 resting PBMC/IC50 cancer cell ([2]; human, 3 days): 4
- Therapeutic Index = IC50 stimulated PBMC/IC50 cancer cell ([2]; human, 3 days): 4
- pIC50 ([3]; MIA PaCa-2, 72 h): 4.52
- pIC50 ([3]; MIA PaCa-2, read-out: In vitro proliferation IC50): 4.52
- Therapeutic Index = IC50 resting PBMC/IC50 cancer cell ([3]; human, 3 days): 5
- Therapeutic Index = IC50 stimulated PBMC/IC50 cancer cell ([3]; human, 3 days): 5
- pIC50 ([4]; LNCaP, 72 h): 4.80
- pIC50 [4, 13]: 4.80
- Therapeutic Index = IC50 resting PBMC/IC50 cancer cell ([4]; human, 3 days): 9
- Therapeutic Index = IC50 stimulated PBMC/IC50 cancer cell ([4]; human, 3 days): 9
- pIC50 ([5]; PANC-1, 72 h): 4.15
- pIC50 ([5]; PANC-1, read-out: In vitro proliferation IC50): 4.15
- Therapeutic Index = IC50 resting PBMC/IC50 cancer cell ([5]; human, 3 days): 2
- Therapeutic Index = IC50 stimulated PBMC/IC50 cancer cell ([5]; human, 3 days): 2
- pIC50 [6, 14]: 4.28
- pIC50 [6, 15]: 4.28
- Therapeutic Index = IC50 resting PBMC/IC50 cancer cell ([6]; human, 3 days): 3
- Therapeutic Index = IC50 stimulated PBMC/IC50 cancer cell ([6]; human, 3 days): 3
- Therapeutic Index = IC50 stimulated PBMC/IC50 cancer cell, AVERAGE [7]: 4
- pIC50 [9]: 3.85

SMILES: CC(=O)O[C@]1(C(C)=O)CC[C@H]2[C@@H]3C=C(Cl)C4=CC(=O)[C@@H]5C[C@@H]5[C@]4(C)[C@H]3CC[C@@]21C [Cyproterone Acetate, reference compound]
- Therapeutic Index = IC50 resting PBMC/IC50 cancer cell [1]: 1
- pancreatic tumor size relative to the size when treatment was initiated ([10]; Example 5, MiaPaca-2 xenograft, nude mice, SC daily 28 days, high dose of cortexolone 17α-benzoate (40 mg/kg)): 12 fold
- pancreatic tumor size relative to the initial tumor size ([10]; Example 6, MiaPaca-2 xenograft, nude mice, SC daily 28 days, for the time of treatment): ≥ 12 fold
- pancreatic tumor size relative to the initial size ([10]; Example 22, MiaPaca2 xenograft, male nude mice, 40 mg/Kg SC daily 28 days, treatment period): 12 fold
- Median survival ([10]; Example 22, MiaPaca2 xenograft, 40 mg/Kg SC daily 28 days): 40 days
- TI on Resting PBMC [11, 16]: 0
- TI on Resting PBMC ([11]; Experiment 2): 4
- TI on Stimulated PBMC [11, 16]: 1
- TI on Stimulated PBMC ([11]; Experiment 2): 1
- TI on Resting PBMC [12, 16]: 0
- TI on Resting PBMC ([12]; Experiment 2): 1
- TI on Stimulated PBMC [12, 16]: 2
- TI on Stimulated PBMC ([12]; Experiment 2): 2
- Therapeutic Index = IC50 resting PBMC/IC50 cancer cell ([2]; MCF7, Table IV): 1
- Therapeutic Index = IC50 stimulated PBMC/IC50 cancer cell ([2]; MCF7, Table VII): 1
- Therapeutic Index = IC50 resting PBMC/IC50 cancer cell ([3]; MiaPaca2, Table IV): 2
- Therapeutic Index = IC50 stimulated PBMC/IC50 cancer cell ([3]; MiaPaca2, Table VII): 2
- pIC50 ([4]; LNCaP, 72 h): 4.66
- pIC50 [4, 13]: 4.66
- Therapeutic Index = IC50 resting PBMC/IC50 cancer cell ([4]; LNCaP, Table IV): 3
- Therapeutic Index = IC50 stimulated PBMC/IC50 cancer cell ([4]; LNCaP, Table VII): 3
- Therapeutic Index = IC50 resting PBMC/IC50 cancer cell ([5]; Panc1, Table IV): 1
- Therapeutic Index = IC50 stimulated PBMC/IC50 cancer cell ([5]; Panc1, Table VII): 1
- pIC50 [6, 14]: 4.05
- pIC50 [6, 15]: 4.05
- Therapeutic Index = IC50 resting PBMC/IC50 cancer cell ([6]; PC3, Table IV): 1
- Therapeutic Index = IC50 stimulated PBMC/IC50 cancer cell ([6]; PC3, Table VII): 1
- Therapeutic Index = IC50 stimulated PBMC/IC50 cancer cell, AVERAGE [7]: 1
